Four molecules from ChEMBL document CHEMBL1134304, “Discovery of novel p-arylthio cinnamides as antagonists of leukocyte function-associated antigen-1/intercellular adhesion molecule-1 interaction. 4. Structure-activity relationship of substituents on the benzene ring of the cinnamide” (J Med Chem, 2001) can be followed below.

pIC50: −log10 of the molar value.

Assay [1] has as its target T1, Integrin alpha-L (Homo sapiens, UniProt P20701).
T1 sequence (P20701 whole entry): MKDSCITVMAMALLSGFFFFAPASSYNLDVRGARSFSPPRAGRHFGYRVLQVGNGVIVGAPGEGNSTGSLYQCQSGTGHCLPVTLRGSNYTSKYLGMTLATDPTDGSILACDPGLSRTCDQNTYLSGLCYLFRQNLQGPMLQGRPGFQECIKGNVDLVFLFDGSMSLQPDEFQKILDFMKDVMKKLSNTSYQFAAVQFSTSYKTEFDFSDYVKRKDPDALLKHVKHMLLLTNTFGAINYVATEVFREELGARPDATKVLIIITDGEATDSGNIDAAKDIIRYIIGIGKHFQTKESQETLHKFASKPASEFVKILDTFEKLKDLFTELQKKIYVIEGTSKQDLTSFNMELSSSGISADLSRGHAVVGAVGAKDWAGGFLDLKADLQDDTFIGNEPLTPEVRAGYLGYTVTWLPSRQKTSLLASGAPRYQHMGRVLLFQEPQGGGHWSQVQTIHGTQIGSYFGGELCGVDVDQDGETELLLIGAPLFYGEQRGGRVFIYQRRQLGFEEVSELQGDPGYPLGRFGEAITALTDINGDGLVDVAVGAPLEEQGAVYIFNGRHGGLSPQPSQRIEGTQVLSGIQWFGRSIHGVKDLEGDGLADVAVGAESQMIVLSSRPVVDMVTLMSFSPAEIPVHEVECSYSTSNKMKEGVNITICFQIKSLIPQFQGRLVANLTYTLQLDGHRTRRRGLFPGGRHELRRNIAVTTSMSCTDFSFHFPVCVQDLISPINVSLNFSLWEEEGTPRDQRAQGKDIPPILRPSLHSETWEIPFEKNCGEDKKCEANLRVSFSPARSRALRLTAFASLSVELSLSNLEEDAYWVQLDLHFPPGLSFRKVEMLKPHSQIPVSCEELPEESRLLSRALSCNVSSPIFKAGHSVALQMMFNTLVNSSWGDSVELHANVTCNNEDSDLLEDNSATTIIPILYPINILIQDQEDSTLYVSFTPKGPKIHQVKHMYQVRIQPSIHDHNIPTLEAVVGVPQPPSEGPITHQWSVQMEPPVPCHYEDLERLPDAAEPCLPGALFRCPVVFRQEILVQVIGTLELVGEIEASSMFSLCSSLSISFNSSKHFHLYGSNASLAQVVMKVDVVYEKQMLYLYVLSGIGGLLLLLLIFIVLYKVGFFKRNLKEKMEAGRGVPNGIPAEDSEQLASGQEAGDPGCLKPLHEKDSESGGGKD
In words: Inhibition of intercellular adhesion molecule-1 (ICAM-1) binding to recombinant LFA-1, range(5-5).

Assay [2] concerns the target T2, Intercellular adhesion molecule (ICAM-1), Integrin alpha-L/beta-2 (Homo sapiens, UniProt P05107+P20701). In words: Inhibition of LFA-1 mediated JY-8 cell adhesion to ICAM-1, range(3-10). The class given is functional, cell-based.
Assay [3] addresses T1, Integrin alpha-L. In words: Inhibition of intercellular adhesion molecule-1 (ICAM-1) binding to recombinant LFA-1, range(130-170).
For assay [4], the target named is T2, Intercellular adhesion molecule (ICAM-1), Integrin alpha-L/beta-2. In words: Inhibition of LFA-1 mediated JY-8 cell adhesion to ICAM-1, range (6-100). The class given is functional, cell-based.
Assay [5] concerns the target T1, Integrin alpha-L.
Assay [6] concerns the target T2, Intercellular adhesion molecule (ICAM-1), Integrin alpha-L/beta-2.
The target of assay [7] is T1, Integrin alpha-L. The source holds these as a separate data set.

For orientation: pIC50 means the negative decadic logarithm of the IC50, by convention in mol/L.

T2 sequence (P05362 whole entry, one chain of several, further chain): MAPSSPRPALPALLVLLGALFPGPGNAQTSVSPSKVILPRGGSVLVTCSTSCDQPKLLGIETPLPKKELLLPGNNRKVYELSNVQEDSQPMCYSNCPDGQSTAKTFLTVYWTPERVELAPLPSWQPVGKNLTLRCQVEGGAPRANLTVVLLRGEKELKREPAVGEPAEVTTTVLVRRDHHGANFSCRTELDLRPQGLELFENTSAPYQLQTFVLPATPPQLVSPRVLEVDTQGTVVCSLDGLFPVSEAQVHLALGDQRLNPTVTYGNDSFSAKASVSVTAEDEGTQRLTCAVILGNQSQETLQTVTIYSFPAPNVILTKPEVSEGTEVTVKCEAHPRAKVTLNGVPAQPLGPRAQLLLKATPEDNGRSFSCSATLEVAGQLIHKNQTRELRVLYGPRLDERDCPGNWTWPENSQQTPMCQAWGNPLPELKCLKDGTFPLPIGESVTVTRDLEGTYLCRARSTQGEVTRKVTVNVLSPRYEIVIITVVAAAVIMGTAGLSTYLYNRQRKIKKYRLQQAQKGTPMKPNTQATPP
T2 sequence (P05107 whole entry, one chain of several): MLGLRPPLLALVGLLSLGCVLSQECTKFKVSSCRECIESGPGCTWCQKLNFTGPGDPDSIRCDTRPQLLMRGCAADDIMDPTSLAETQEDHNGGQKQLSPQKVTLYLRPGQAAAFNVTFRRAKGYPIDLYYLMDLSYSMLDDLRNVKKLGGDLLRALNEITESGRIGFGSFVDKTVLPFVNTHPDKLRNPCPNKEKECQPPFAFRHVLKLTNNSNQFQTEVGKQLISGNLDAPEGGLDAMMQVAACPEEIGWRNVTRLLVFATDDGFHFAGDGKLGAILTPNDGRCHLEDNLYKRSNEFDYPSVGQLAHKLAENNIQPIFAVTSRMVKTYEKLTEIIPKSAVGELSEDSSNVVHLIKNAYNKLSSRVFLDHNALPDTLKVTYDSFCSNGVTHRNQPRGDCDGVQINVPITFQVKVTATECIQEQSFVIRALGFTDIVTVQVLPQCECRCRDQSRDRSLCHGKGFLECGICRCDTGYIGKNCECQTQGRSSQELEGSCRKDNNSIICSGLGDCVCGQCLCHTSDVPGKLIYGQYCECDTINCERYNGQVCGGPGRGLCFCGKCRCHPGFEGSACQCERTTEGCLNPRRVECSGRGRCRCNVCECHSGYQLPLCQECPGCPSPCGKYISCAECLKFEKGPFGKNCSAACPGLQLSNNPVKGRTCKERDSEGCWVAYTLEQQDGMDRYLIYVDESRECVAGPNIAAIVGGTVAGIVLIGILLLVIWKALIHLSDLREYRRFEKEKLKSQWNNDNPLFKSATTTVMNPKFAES

`Cn1ccc2cc(Sc3ccc(/C=C/C(=O)N4CCC(C(=O)O)CC4)c(C(F)(F)F)c3C(F)(F)F)ccc21`: the negative-log IC50 (pIC50) in assay [1] and in assay [2] was 8.30 each time.

`COc1ccccc1Sc1ccc(/C=C/C(=O)N2CCOCC2)cc1Cl`: the pIC50 in assay [3] was 6.82; in assay [4], 7.40.

As for `O=C(O)C1CCN(C(=O)/C=C/c2ccc(Sc3ccc4c(c3)OCCO4)c(C(F)(F)F)c2C(F)(F)F)CC1`, the results for the negative-log IC50 (pIC50) in assay [5] and in assay [6] were 8.52 and 9.30, respectively.

Molecule `O=C(O)C1CCN(C(=O)/C=C/c2ccc(Sc3ccc4c(c3)OCCO4)c3ccccc23)CC1` had a pIC50 in assay [7] of 6.53.
